Molecular target: T1, histamine H4 receptor (Homo sapiens, UniProt Q9H3N8)
T1 construct: expressed in transfected cells; host or cells: HEK293SFM cells (membrane preparation)
Assay: H4 Membrane Binding Assay (3H-Histamine displacement)
Details: membranes of recombinant HEK293SFM cells, 10 nM 3H-Histamine, 1.5 hr at room temperature
Description: Recombinant HEK293SFM cells expressing human H1, H2, H3, H4 or mouse H4 were harvested (Packard Filtermate Harvester) in ice-cold Tris-HCl, (50 mM, pH 7.5, Sigma) with protease inhibitors (Roche) and homogenized with a Polytron homogenizer. The homogenate was centrifuged for 5 minutes at 1000 g to remove nuclei and unbroken cells. The supernatant was centrifuged at 50000 g for 30 minutes, and the resulting pellet was re-suspended in ice-cold Tris-HCl (50 mM, pH 7.5). […] Nonspecific binding was determined by inclusion of 1000× unlabeled ligands. The bound radioactivity was separated by filtration through polyethyleneimine-treated GF/B filters (Perkin Elmer). The filters were washed eight times with ice-cold Tris-HCl (50 mM, pH 7.5), and radioactivity retained on the filters was measured by liquid scintillation counting. The binding data were evaluated with Prism.

T1 sequence (Q9H3N8 whole entry): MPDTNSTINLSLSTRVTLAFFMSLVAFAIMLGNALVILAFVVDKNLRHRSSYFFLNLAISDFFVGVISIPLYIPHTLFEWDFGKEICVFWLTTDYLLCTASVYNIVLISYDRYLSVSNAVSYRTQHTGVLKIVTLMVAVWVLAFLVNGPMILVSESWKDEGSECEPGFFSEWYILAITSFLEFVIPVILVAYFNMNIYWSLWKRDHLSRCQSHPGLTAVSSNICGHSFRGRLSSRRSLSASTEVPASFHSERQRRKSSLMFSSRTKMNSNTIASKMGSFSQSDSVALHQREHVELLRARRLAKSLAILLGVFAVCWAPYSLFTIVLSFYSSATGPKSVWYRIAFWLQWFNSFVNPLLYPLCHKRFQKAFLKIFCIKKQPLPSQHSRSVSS

SMILES	IC50
CN1CCN(c2nc(N)nc3cc(C(=O)N[C@@H](Cc4ccc(-c5ccc(F)c(C(F)(F)F)c5)cc4)C(=O)N(C)C)ccc23)CC1 [Example 159, 2-Amino-N-((1S)-2-(dimethylamino)-1-{[4′-fluoro-3′-(trifluoromethyl)biphenyl-4-yl]methyl}-2-oxoethyl)-4-(4-methylpiperazin-1-yl)quinazoline-7-carboxamide]	26 nM
COc1ccc(Oc2cccc(CC(NC(=O)c3ccc4c(N5CCN(C)CC5)nc(N)nc4c3)C(=O)N(C)C)c2)cc1 (centres unmarked) [Example 166, 2-Amino-N-{2-(dimethylamino)-1-[3-(4-methoxyphenoxy)benzyl]-2-oxoethyl}-4-(4-methylpiperazin-1-yl)quinazoline-7-carboxamide]	31 nM
CCS(=O)(=O)N1CCC(CC(=O)N2CCc3ccc(-c4cc(N5CCN(C)CC5)nc(N)n4)cc3C2)CC1 [Example 74, 4-(2-{[1-(Ethylsulfonyl)piperidin-4-yl]acetyl}-1,2,3,4-tetrahydroisoquinolin-7-yl)-6-(4-methylpiperazin-1-yl)pyrimidin-2-amine]	123 nM
CN1CCN(c2cc(-c3ccc4c(c3)CN(C(=O)c3cccc(Cl)c3)CC4)nc(N)n2)CC1 [Example 39, 4-[2-(3-Chlorobenzoyl)-1,2,3,4-tetrahydroisoquinolin-7-yl]-6-(4-methylpiperazin-1-yl)pyrimidin-2-amine]	186 nM
CN1CCN(c2nc(N)nc3cc(C(=O)NCC(=O)OCc4ccccc4)ccc23)CC1 [Example 132, Benzyl({[2-amino-4-(4-methylpiperazin-1-yl)quinazolin-7yl]carbonyl}amino)acetate]	139 nM
CN1CCN(c2cc(-c3ccc4c(c3)CN(C(=O)Nc3ccc(-c5ccccc5)cn3)CC4)nc(N)n2)CC1 [Example 91, 7-[2-Amino-6-(4-methylpiperazin-1-yl)pyrimidin-4-yl]-N-(5-phenylpyridin-2-yl)-3,4-dihydroisoquinoline-2(1H)-carboxamide]	63 nM
CN1CCN(c2cc(-c3ccc4c(c3)CN(S(=O)(=O)c3ccccc3)CC4)nc(N)n2)CC1 [Example 4, 4-(4-Methylpiperazin-1-yl)-6-[2-(phenylsulfonyl)-1,2,3,4-tetrahydroisoquinolin-7-yl]pyrimidin-2-amine]	267 nM
CN1CCN(c2cc(-c3ccc4c(c3)CN(C(=O)Nc3nc5ccccc5s3)CC4)nc(N)n2)CC1 [Example 90, 7-[2-Amino-6-(4-methylpiperazin-1-yl)pyrimidin-4-yl]-N-1,3-benzothiazol-2-yl-3,4-dihydroisoquinoline-2(1H)-carboxamide]	143 nM
CN1CCN(c2cc(-c3ccc4c(c3)CN(C(=O)C(F)(F)c3ccccc3)CC4)nc(N)n2)CC1 [Example 61, 4-{2-[Difluoro(phenyl)acetyl]-1,2,3,4-tetrahydroisoquinolin-7-yl}-6-(4-methylpiperazin-1-yl)pyrimidin-2-amine]	70 nM
CC(C)Oc1ccc(NC(=O)N2CCc3ccc(-c4cc(N5CCN(C)CC5)nc(N)n4)cc3C2)cc1 [Example 92, 7-[2-Amino-6-(4-methylpiperazin-1-yl)pyrimidin-4-yl]-N-(4-isopropoxyphenyl)-3,4-dihydroisoquinoline-2(1H)-carboxamide]	50 nM
CN1CCN(c2cc(-c3ccc4c(c3)CN(C(=O)CC3CCCC3)CC4)nc(N)n2)CC1 [Example 41, 4-[2-(Cyclopentylacetyl)-1,2,3,4-tetrahydroisoquinolin-7-yl]-6-(4-methylpiperazin-1-yl)pyrimidin-2-amine]	28 nM
CN1CCN(c2nc(N)nc3cc(C(=O)NC(Cc4cccc(Oc5ccc(Cl)cc5C#N)c4)C(=O)N(C)C)ccc23)CC1 (centres unmarked) [Example 172, 2-Amino-N-[1-[3-(4-chloro-2-cyanophenoxy)benzyl]-2-(dimethylamino)-2-oxoethyl]-4-(4-methylpiperazin-1-yl)quinazoline-7-carboxamide]	26 nM
CN1CCN(c2nc(N)nc3cc(C(=O)NC(Cc4ccc5c(c4)OC(F)(F)O5)C(=O)N(C)C)ccc23)CC1 (centres unmarked) [Example 145, 2-Amino-N-[1-[(2,2-difluoro-1,3-benzodioxol-5-yl)methyl]-2-(dimethylamino)-2-oxoethyl]-4-(4-methylpiperazin-1-yl)quinazoline-7-carboxamide]	34 nM
CN1CCN(c2nc(N)nc3cc(C(=O)NCC4CC4)ccc23)CC1 [Example 25, 2-Amino-N-(cyclopropylmethyl)-4-(4-methylpiperazin-1-yl)quinazoline-7-carboxamide]	579 nM
CN1CCN(c2cc(-c3ccc4c(c3)CN(C(=O)Nc3nc(-c5ccc(Cl)cc5)cs3)CC4)nc(N)n2)CC1 [Example 48, 7-[2-Amino-6-(4-methylpiperazin-1-yl)pyrimidin-4-yl]-N-[4-(4-chlorophenyl)-1,3-thiazol-2-yl]-3,4-dihydroisoquinoline-2(1H)-carboxamide]	99 nM
CN1CCN(c2cc(-c3ccc4c(c3)CN(C(=O)NCc3ccccc3)CC4)nc(N)n2)CC1 [Example 80, 7-[2-Amino-6-(4-methylpiperazin-1-yl)pyrimidin-4-yl]-N-benzyl-3,4-dihydroisoquinoline-2(1H)-carboxamide]	232 nM
CN1CCN(c2cc(-c3ccc4c(c3)CN(C(=O)OC3CCN(C(=O)OC5CCCC5)CC3)CC4)nc(N)n2)CC1 [Example 69, 1-[(Cyclopentyloxy)carbonyl]piperidin-4-yl 7-[2-amino-6-(4-methylpiperazin-1-yl)pyrimidin-4-yl]-3,4-dihydroisoquinoline-2(1H)-carboxylate]	33 nM
CN1CCN(c2nc(N)nc3cc(C(=O)NC(Cc4ccc5c(c4)OC(F)(F)O5)C(=O)N(C)C)ccc23)CC1 (single isomer, unassigned) [Example 145B, 2-Amino-N-(3-(2,2-difluorobenzo[d][1,3]dioxol-5-yl)-1-(dimethylamino)-1-oxopropan-2-yl)-4-(4-methylpiperazin-1-yl)quinazoline-7-carboxamide]	26 nM
CC(NC(=O)c1ccc2c(N3CCN(C)CC3)nc(N)nc2c1)c1cccc(OCc2cccc(C#N)c2)c1 (centres unmarked) [Example 201, 2-Amino-N-(1-{3-[(3-cyanobenzyl)oxy]phenyl}ethyl)-4-(4-methylpiperazin-1-yl)quinazoline-7-carboxamide]	14 nM
CN1CCN(c2cc(-c3ccc4c(c3)CN(C(=O)COc3cccc(Cl)c3)CC4)nc(N)n2)CC1 [Example 66, 4-{2-[(3-Chlorophenoxy)acetyl]-1,2,3,4-tetrahydroisoquinolin-7-yl}-6-(4-methylpiperazin-1-yl)pyrimidin-2-amine]	44 nM
CNC(=O)c1ccc2c(N3CCN(C)CC3)nc(N)nc2c1 [Example 26, 2-Amino-N-methyl-4-(4-methylpiperazin-1-yl)quinazoline-7-carboxamide]	495 nM
CN1CCN(c2nc(N)nc3cc(C(=O)N[C@@H](Cc4ccc(-c5ccccn5)cc4)C(=O)N(C)C)ccc23)CC1 [Example 160, 2-Amino-N-[(1S)-2-(dimethylamino)-2-oxo-1-(4-pyridin-2-ylbenzyl)ethyl]-4-(4-methylpiperazin-1-yl)quinazoline-7-carboxamide]	52 nM
Cc1cc2c(cc1-c1cc(N3CCN(C)CC3)nc(N)n1)CN(C(=O)Nc1ccc(Cl)cc1)CC2 [Example 77, 7-[2-Amino-6-(4-methylpiperazin-1-yl)pyrimidin-4-yl]-N-(4-chlorophenyl)-6-methyl-3,4-dihydroisoquinoline-2(1H)-carboxamide]	95 nM
